Data as given in US20250281569A1, “COMPOSITIONS AND METHODS FOR TREATING NEUROENDOCRINE TUMORS” (CAMURUS AB, priority 2021, published 2025).

Experiment: Non-clinical bridging studies of toxicity, PK and local tolerability
Conditions: in vivo
Description: In addition, the FluidCrystal® vehicle and the excipient glycerol dioleate have been evaluated.

CCCCCCCC/C=C\CCCCCCCC(=O)OCC(CO)OC(=O)CCCCCCC/C=C\CCCCCCCC (stereo not shown) [glycerol dioleate]
main effects observed in non-clinical studies: reversible injection-site reactions
